Results: patent EP0326490B2, “Synthetic peptides and mixtures thereof for detecting HIV antibodies” (ADALTIS INC., priority 1988, dated 2004)
Positions of bridges follow the written chain, without caps; N, C: chain ends. Residues, ends and D or L forms follow the SMILES beside them.

Key:
HIV-1 positive sera = assay: ELISA, single peptides identifying HIV-1 positive sera; format: binding, human; settings: single gp41 or gp120 peptide
Protocol: (§1) According to this test a peptide or a peptide mixture of the present invention is adsorbed onto the wells of a microtiter plate. The wells are then treated with sera to be tested. After washing, anti-human IgG labeled with peroxidase is added to the wells. The determination of the peroxidase is performed with a corresponding substrate, e.g. with o-phenylene diamine. Also in this procedure the peroxidase can be exchanged by another label, e.g. by a radioactive or fluorescence label.
(§2) Each well of the microtiter plate is saturated with 100 µl of a solution containing a peptide or mixture of peptides (5 µg/ml) and left overnight. The wells are emptied and washed twice with a washing buffer (Tris, 0.043M; NaCl, 0.5M;thimerosal, 0.01% w/v; Tween 20, 0.05% v/v; pH 7.4). The wells are then saturated with […] of washing buffer for 1 hr. at 37°C and washed once with the same buffer. Serum samples to be analyzed are diluted with specimen buffer (washing buffer plus casein, 0.05% w/v). The bells are rinsed with washing buffer prior to the addition of the diluted serum sample (0.1 ml). These are left to incubate for 1 hr. at room temperature. The wells are then emptied, washed twice rapidly and then once for two minutes with washing buffer. […] The wells are then emptied and washed twice rapidly with washing buffer and then five times in which the buffer was in contact with the well 2 minutes per washing. The substrate solution (3,3', 5,5'-tetramethylbenzidine, 8 mg per ml of DMSO) is diluted with 100 volumes 0.1 M citrate-acetate buffer, pH 5.6 containing 0.1% v/v of 30% H2O2 and added to each well (0.1 ml per well). After 10 minutes the contents of each well is treated with 0.1 ml 2N H2SO4 and the optical density read at 450 nm. All determinations are done in duplicate.

HIV-1-antibodies = assay: ELISA optical density of serially diluted sera, cyclic versus non-cyclic peptides; format: binding, human; settings: coated at 0.5 µg/ml
Source text: TABLE 5 is provided to illustrate the sensitivity of cyclic versus non-cyclic peptides in the ELISA test by comparing the results of some sera at various dilutions.
Even though results presented in TABLE 5 clearly show the superiority of cyclic peptides over their linear counterpart in detecting HIV-1-antibodies, that increased sensitivity could have been underestimated because of probable cyclization and polymerization of the linear peptide after solubilization in a carbonate buffer (pH 9.6). That experiment was repeated with the linear 87 and cyclic 87c peptides dissolved in a carbonate buffer (pH 9.6) as before and also in 10% acetic acid (pH 2.7). […] It is believed that cyclization and polymerization also occured in the wells of the microtiter plates although the exact proportion of cyclic peptide bound to the plates versus linear has not been as yet determined. […]
as §2

[1] = system: HIV-1 positive serum samples; assay: ELISA serum titers on plates coated with cyclic versus linear peptide; format: binding, human; settings: for serum titer (serum dilution giving an absorbancy reading of 1.0): coated at 10 µg/ml
Source text: (§3) Even though results presented in TABLE 5 clearly show the superiority of cyclic peptides over their linear counterpart in detecting HIV-1-antibodies, that increased sensitivity could have been underestimated because of probable cyclization and polymerization of the linear peptide after solubilization in a carbonate buffer (pH 9.6). That experiment was repeated with the linear 87 and cyclic 87c peptides dissolved in a carbonate buffer (pH 9.6) as before and also in 10% acetic acid (pH 2.7). […] It is believed that cyclization and polymerization also occured in the wells of the microtiter plates although the exact proportion of cyclic peptide bound to the plates versus linear has not been as yet determined.
Plates used in this experiment were coated with solutions of peptides at 10 µg/ml. (Experimental results of TABLE 5 were obtained with plates coated with peptides at 0.5 µg/ml). Four different HIV-1 positive serum samples were serially diluted and their titers determined. The titer was defined as the serum dilution giving an absorbancy reading of 1.0 in the conditions of the ELISA procedure already described.
The ratios of sensitivities measured with the cyclic peptide over the linear 87 peptide vary between 1.3 and 2.2 with an average of 1.8. These ratios are even larger, varying from 3.0 to 4.5, when the sensitivity of the ELISA test using the cyclic 87c peptide is compared using conditions (acidic pH) where the linear 87 peptide remains linear and is not allowed to cyclize or polymerize.
as §2

[2] = Stability of linear and cyclic peptide in coating buffers (HPLC, Ellman's test); format: physicochemical; settings: 10% acetic acid (pH 2.7)
Source text: as §3

HIV-2 positive sera = assay: ELISA, single peptides identifying HIV-2 positive sera; format: binding, human; settings: single peptide
Protocol: as §1, with “A preferred convenient and classical technique for the determination of antibodies against AIDS virus using a peptide or a peptide mixture of the present invention is an enzyme-linked immunosorbent assay (ELISA). According” for “According”, “label. […]” for “label.”
TABLE 4 provides the results of single peptides which were individually evaluated in identifying known HIV-2 positive sera.
Each well of the microtiter plate is saturated with 100 µl of a solution containing a peptide or mixture of peptides (5 µg/ml) and left overnight. […] Serum samples to be analyzed are diluted with specimen buffer (washing buffer plus casein, 0.05% w/v). […] After 10 minutes the contents of each well is treated with 0.1 ml 2N H2SO4 and the optical density read at 450 nm. […]

CC[C@H](C)[C@H](NC(=O)CNC(=O)[C@H](CC(C)C)NC(=O)[C@H](CC(C)C)NC(=O)[C@H](CCC(N)=O)NC(=O)[C@H](CCC(N)=O)NC(=O)[C@H](CC(=O)O)NC(=O)[C@H](CCCCN)NC(=O)[C@H](CC(C)C)NC(=O)[C@H](Cc1ccc(O)cc1)NC(=O)[C@H](CCCNC(=N)N)NC(=O)[C@H](CCC(=O)O)NC(=O)[C@@H](NC(=O)[C@H](C)NC(=O)[C@H](CC(C)C)NC(=O)[C@@H](NC(=O)[C@@H](N)CCCNC(=N)N)[C@@H](C)CC)C(C)C)C(=O)N[C@@H](Cc1c[nH]c2ccccc12)C(=O)NCC(=O)N[C@H]1CSSC[C@@H](C(=O)N[C@H](C(=O)N[C@H](C(=O)N[C@@H](C)C(=O)N[C@H](C(=O)N2CCC[C@H]2C(=O)N[C@@H](Cc2c[nH]c3ccccc23)C(=O)N[C@@H](CC(N)=O)C(=O)N[C@@H](C)C(=O)N[C@@H](CO)C(=O)O)C(C)C)[C@@H](C)O)[C@@H](C)O)NC(=O)[C@H]([C@@H](C)CC)NC(=O)[C@H](CC(C)C)NC(=O)[C@H](CCCCN)NC(=O)CNC(=O)[C@H](CO)NC1=O [Peptide 87c] (H-RILAVERYLKDQQLLGIWGCSGKLICTTAVPWNAS-OH; disulfide 20-26)
% Positive Sera correctly Idenfitied (HIV-1 positive sera): 99% | Relative performance in ELISA (optical density) (HIV-1-antibodies; serum 87V103, dilution 1/50): 0.011 optical density units | Relative performance in ELISA (optical density) (HIV-1-antibodies; serum 1428, dilution 1/50): >2.0 optical density units | Relative performance in ELISA (optical density) (HIV-1-antibodies; serum M-5, dilution 1 50): >2.0 optical density units | Relative performance in ELISA (optical density) (HIV-1-antibodies; serum M-5, dilution 1/100): >2.0 optical density units | Relative performance in ELISA (optical density) (HIV-1-antibodies; serum M-5, dilution 1/200): >2.0 optical density units | Relative performance in ELISA (optical density) (HIV-1-antibodies; serum M-5, dilution 1/400): >2.0 optical density units | Relative performance in ELISA (optical density) (HIV-1-antibodies; serum M-5, dilution 1/800): 1.854 optical density units | Relative performance in ELISA (optical density) (HIV-1-antibodies; serum M-7, dilution 1/50): >2.0 optical density units | Relative performance in ELISA (optical density) (HIV-1-antibodies; serum M-7, dilution 1/100): >2.0 optical density units | Relative performance in ELISA (optical density) (HIV-1-antibodies; serum M-7, dilution 1/200): 1.729 optical density units | Relative performance in ELISA (optical density) (HIV-1-antibodies; serum M-7, dilution 1/400): 1.348 optical density units | Relative performance in ELISA (optical density) (HIV-1-antibodies; serum M-7, dilution 1/800): 0.611 optical density units | Relative performance in ELISA (optical density) (HIV-1-antibodies; serum M-8, dilution 1/50): >2.0 optical density units | Relative performance in ELISA (optical density) (HIV-1-antibodies; serum M-8, dilution 1/100): >2.0 optical density units | Relative performance in ELISA (optical density) (HIV-1-antibodies; serum M-8, dilution 1/200): 1.655 optical density units | Relative performance in ELISA (optical density) (HIV-1-antibodies; serum M-8, dilution 1/400): 1.064 optical density units | Relative performance in ELISA (optical density) (HIV-1-antibodies; serum M-8, dilution 1/800): 0.384 optical density units | Relative performance in ELISA (optical density) (HIV-1-antibodies; serum M-16, dilution 1/50): >2.0 optical density units | Relative performance in ELISA (optical density) (HIV-1-antibodies; serum M-16, dilution 1/100): >2.0 optical density units | Relative performance in ELISA (optical density) (HIV-1-antibodies; serum M-16, dilution 1/200): >2.0 optical density units | Relative performance in ELISA (optical density) (HIV-1-antibodies; serum M-16, dilution 1/400): >2.0 optical density units | Relative performance in ELISA (optical density) (HIV-1-antibodies; serum M-16, dilution 1/800): 1.962 optical density units | A B (titer 87c cyclic over titer 87 linear) ([1]; 10% Acetic Acid (pH 2.7), serum M-5): 3.0 | A B (titer 87c cyclic over titer 87 linear) ([1]; 10% Acetic Acid (pH 2.7), serum M-7): 3.9 | A B (titer 87c cyclic over titer 87 linear) ([1]; 10% Acetic Acid (pH 2.7), serum M-8): 4.5 | A B (titer 87c cyclic over titer 87 linear) ([1]; 10% Acetic Acid (pH 2.7), serum M-16): 3.7 | A B (titer 87c cyclic over titer 87 linear) ([1]; Carbonate Bicarbonate 0.1M (pH 9.6), serum M-5): 1.3 | A B (titer 87c cyclic over titer 87 linear) ([1]; Carbonate Bicarbonate 0.1M (pH 9.6), serum M-7): 1.8 | A B (titer 87c cyclic over titer 87 linear) ([1]; Carbonate Bicarbonate 0.1M (pH 9.6), serum M-8): 2.2 | A B (titer 87c cyclic over titer 87 linear) ([1]; Carbonate Bicarbonate 0.1M (pH 9.6), serum M-16): 1.7 | ratios of sensitivities measured with the cyclic peptide over the linear 87 peptide, average ([1]; carbonate buffer (pH 9.6), average over four sera): 1.8 | serum titer (serum dilution giving an absorbancy reading of 1.0) ([1]; coating buffer 10% Acetic Acid (pH 2.7), serum M-5): 13 500 | serum titer (serum dilution giving an absorbancy reading of 1.0) ([1]; coating buffer 10% Acetic Acid (pH 2.7), serum M-7): 9 000 | serum titer (serum dilution giving an absorbancy reading of 1.0) ([1]; coating buffer 10% Acetic Acid (pH 2.7), serum M-8): 6 300 | serum titer (serum dilution giving an absorbancy reading of 1.0) ([1]; coating buffer 10% Acetic Acid (pH 2.7), serum M-16): 56 000 | serum titer (serum dilution giving an absorbancy reading of 1.0) ([1]; coating buffer Carbonate Bicarbonate 0.1M (pH 9.6), serum M-5): 13 500 | serum titer (serum dilution giving an absorbancy reading of 1.0) ([1]; coating buffer Carbonate Bicarbonate 0.1M (pH 9.6), serum M-7): 11 000 | serum titer (serum dilution giving an absorbancy reading of 1.0) ([1]; coating buffer Carbonate Bicarbonate 0.1M (pH 9.6), serum M-8): 6500 | serum titer (serum dilution giving an absorbancy reading of 1.0) ([1]; coating buffer Carbonate Bicarbonate 0.1M (pH 9.6), serum M-16): 56 000 | stability in solution (HPLC, Ellman's test) [2]: remained cyclic

CC[C@H](C)[C@H](NC(=O)[C@H](CCC(=O)O)NC(=O)[C@@H](NC(=O)[C@@H](N)CC(C)C)C(C)C)C(=O)N[C@H](C(=O)N1CCC[C@H]1C(=O)N[C@H](C(=O)NCC(=O)N[C@@H](Cc1ccccc1)C(=O)N[C@@H](C)C(=O)N1CCC[C@H]1C(=O)N[C@H](C(=O)N[C@@H](CCCCN)C(=O)N[C@@H](CCC(=O)O)C(=O)N[C@@H](CCCCN)C(=O)N[C@@H](CCCNC(=N)N)C(=O)N[C@@H](Cc1ccc(O)cc1)C(=O)N[C@@H](CO)C(=O)N[C@@H](CO)C(=O)N[C@@H](C)C(=O)N[C@@H](Cc1c[nH]cn1)C(=O)NCC(=O)N[C@@H](CCCNC(=N)N)C(=O)O)[C@@H](C)O)[C@@H](C)CC)[C@@H](C)O [Peptide 203]
%Positive sera correctly Identified (HIV-2 positive sera): 100%

CC[C@H](C)[C@H](NC(=O)[C@H](CCC(=O)O)NC(=O)[C@@H](NC(=O)[C@@H](N)CC(C)C)C(C)C)C(=O)N[C@H](C(=O)N1CCC[C@H]1C(=O)N[C@H](C(=O)NCC(=O)N[C@@H](Cc1ccccc1)C(=O)N[C@@H](C)C(=O)N1CCC[C@H]1C(=O)N[C@H](C(=O)N[C@@H](CCCCN)C(=O)N[C@@H](CCC(=O)O)C(=O)N[C@@H](CCCCN)C(=O)N[C@@H](CCCNC(=N)N)C(=O)O)[C@@H](C)O)[C@@H](C)CC)[C@@H](C)O [Peptide 204]
%Positive sera correctly Identified (HIV-2 positive sera): 100%
